Data taken from patent US20240245639A1, “Dermal Application of Retinoic Acid Receptor Agonists for Amelioration of Hypertrophic Scar” (Northwestern University, priority 2023, published 2024).

Assays:
[1] = system: primary human foreskin fibroblasts; assay: Antagonism of fibroblast activation in presence or absence of TGF-β1 (qRT-PCR, Western blot, immunofluorescence); type: cell-based; conditions: 1,000 nM Ch55, presence and absence of TGF-β1, 48 hours
Experimental: RAR Agonist all-Trans Retinoic Acid Antagonizes Myofibroblast Activation We then wished to see whether another RAR agonist could antagonize myofibroblast activation.
Cells cultured on glass coverslips were fixed in 4% paraformaldehyde for 30 minutes at room temperature. Cells were blocked in 10% normal goat serum and incubated overnight at 4° C. in solutions of the following primary antibodies: Rabbit monoclonal α-human α-SMA (1:500 dilution, catalog #192455, Cell Signaling Technology, Danvers M A) or mouse α-human COL1A1 (1:1000 dilution, catalog #M-38c, DSHB, Iowa City, IA). The following day, cells were incubated in 1:200 diluted solutions of goat-α-rabbit IgG or donkey-α-mouse IgG Alexafluor 488-conjugated secondary antibodies (A11034 or A21202, Invitrogen) containing Alexafluor 568-conjugated phalloidin (A12380, Invitrogen) for 2 hours in the dark at room temperature, before a 20 minute counterstain in 500 ng/mL DAPI. Coverslips were mounted onto slides in the dark using Fluoro Gel with DABCO (Electron Microscopy Sciences, Hatfield, PA) and imaged on an EVOS-FL imaging system (ThermoFisher).
Harvested scar tissues were incubated in 0.5M ammonium thiocyanate for 20 minutes, followed by mechanical separation of dermis and epidermis using a dissecting microscope. Isolated dermal tissues were minced with a razor blade, submerged in RIPA buffer, and homogenized in the presence of 2 mm zirconia beads using a MagNA Lyser (Roche, Basel, Switzerland). Alternatively, cell culture samples were detached from the culture surface by trypsinization, collected by centrifugation, and lysed in RIPA buffer. Protein concentrations of cell culture and tissue samples were determined using a DC protein assay (BioRad). Five micrograms of total protein were loaded onto polyacrylamide gels and subjected to SDS-PAGE before transfer to nitrocellulose membranes, blocking with 5% dry milk in TBS-T, and probing with target-specific primary antibodies overnight. Species-specific secondary antibody solutions were added to membranes, and chemiluminescent signal was developed with Amersham ECL Western blotting detection reagent using X-ray film.
Primary antibodies used were rabbit anti-α-SMA (1:1000, 19245S, Cell Signaling Technology), rabbit anti-collagen I (1:1000, ab34710, Abcam), mouse anti-collagen I (1:1000, C2456, Sigma-Aldrich), and mouse anti-GAPDH (1:5000, MA5-15738, Invitrogen). Secondary antibodies utilized were HRP goat anti-rabbit IgG(H+L) and horse anti-mouse IgG(H+L) (Vector Laboratories, Newark, CA), both used at 1:5000.

[2] = system: primary rabbit dermal fibroblasts; assay: Ch55 treatment of rabbit dermal fibroblasts (morphology, ACTA2 qRT-PCR); type: cell-based; conditions: 1,000 nM, 24 hours
Experimental: Cell culture Primary human neonatal foreskin fibroblasts were obtained from the Skin Biology and Diseases Resource-based Center at Northwestern University. Primary rabbit dermal fibroblasts were isolated from female New Zealand White rabbits via harvesting full-thickness skin biopsies from rabbit ears, digesting overnight in a solution of 5 mg/mL dispase, and subsequently mechanically separating dermis from epidermis. After discarding epidermal tissue, dermal tissue was minced with a razor blade, and fibroblasts were liberated through collagenase-mediated digestion for growth in culture. […] Human fibroblasts and rabbit fibroblasts were cultured on tissue culture plastic (or, for immunofluorescence experiments, on glass coverslips) in DMEM+10% FBS and were serum starved in DMEM+0.1% FBS for 24 hours prior to drug treatments. When indicated, recombinant human TGF-β 1 was included in culture medium at a concentration of 10 ng/mL. Cultures were maintained in a humidified cell culture incubator at 37° C., 5% CO2, and ambient O2. For treatment with drugs and associated vehicle controls, the fraction of DMSO in the media was always maintained at <0.1% (v/v) in order to avoid confounding effects. […]

[3] = system: primary human foreskin fibroblasts; assay: Antagonism of fibroblast activation in presence or absence of TGF-β1 (qRT-PCR, Western blot, immunofluorescence); type: cell-based
RAR-β = target: T1, RAR-β (Homo sapiens, UniProt P10826); conditions: cited from earlier work
T1 sequence (P10826 1-455): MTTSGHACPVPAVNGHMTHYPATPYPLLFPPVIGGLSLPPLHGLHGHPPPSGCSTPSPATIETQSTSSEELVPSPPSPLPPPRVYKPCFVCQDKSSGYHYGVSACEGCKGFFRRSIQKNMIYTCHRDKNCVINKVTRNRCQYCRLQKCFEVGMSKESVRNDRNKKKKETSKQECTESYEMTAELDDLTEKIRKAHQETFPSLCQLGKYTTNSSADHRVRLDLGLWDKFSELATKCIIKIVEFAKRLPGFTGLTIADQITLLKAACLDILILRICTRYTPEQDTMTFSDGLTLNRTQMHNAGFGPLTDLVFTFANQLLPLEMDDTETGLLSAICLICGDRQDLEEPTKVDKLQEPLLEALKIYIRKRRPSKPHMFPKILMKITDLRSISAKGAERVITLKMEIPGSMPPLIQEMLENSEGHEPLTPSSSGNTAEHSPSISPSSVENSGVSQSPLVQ

[4] = 1,000 nM Ch55, ± 10 ng/mL TGF-β1, 24 hour
[5] = 1,000 nM Ch55, ± TGF-β1, 48 hours

CC(C)(C)c1cc(C(=O)/C=C/c2ccc(C(=O)O)cc2)cc(C(C)(C)C)c1 [Ch55]
α-SMA protein in filamentous actin stress fibers (immunofluorescence) [1]: loss of α-SMA protein from filamentous actin stress fibers | effects on morphology and ACTA2 expression [2]: comparable effects | spread area per cell (brightfield microscopy) ([3]; 1,000 nM Ch55, 48 hours): decreased | deposition of collagen I (immunofluorescence) ([3]; 1,000 nM Ch55, presence and absence of TGF-β1, 48 hours): greatly diminished deposition | basal and TGF-β1-induced expression of ACTA2 (qRT-PCR) [3, 4]: significantly downregulated | basal and TGF-β1-induced expression of CCN2 (qRT-PCR) [3, 4]: significantly downregulated | basal and TGF-β1-induced expression of SERPINE1 (qRT-PCR) [3, 4]: significantly downregulated | collagen deposition as assessed by expression of type I collagen (Western blot) [3, 5]: dramatically antagonized | fibroblast activation as assessed by expression of α-SMA (Western blot) [3, 5]: dramatically antagonized | affinity for RAR-β (RAR-β): high affinity
